# Test results reported in patent publication US9156855B2, “Regulation of nitric oxide release and biofilm development” (Newsouth Innovation Pty Limited, priority 2011, dated 2015).
# Structures can show the parent of a compound that is named as a salt. Where two headings read alike, the source gives them in different places.
# Legend:
# [1] = tested on: P. aeruginosa PAO1 wild type cells; test: Planktonic growth inhibition, minimum inhibitory concentration; type: cell-based; settings: M9 minimal medium, 20 h growth, OD600nm of 35% or less
# [2] = tested on: Established P. aeruginosa biofilms; test: Anti-biofilm efficacy of tobramycin or ciprofloxacin with compound 21 (Table 1); type: cell-based; settings: tobramycin 80 μg/mL or ciprofloxacin 5 μg/mL, 1 h, mean ± SEM
# Description: Values represent the log-fold reductions in cfu compared to control biofilms and are the mean of two independent experiments (±SEM).
# [3] = tested on: extracellular β-lactamases of P. aeruginosa; type: biochemical; settings: P. aeruginosa culture treated 1 h; imipenem 0.5 μg/ml or ampicillin 100 μg/ml
# Description: (c) Nitric oxide release in the presence of supernatants of P. aeruginosa cultures grown for 5 h in the absence of antibiotic then treated for 1 h with extracellular β-lactamase-inducing imipenem a 0.5 μg/ml (thick line) or ampicillin at 100 μg/ml (dotted line). Arrows indicate addition of the following to a reaction vial containing 10 mL Tris buffer at pH 7.0: (i) 10 μL of 150 mM Compound 15, (ii) 500 μL supernatant, (iii) 500 μL supernatant, (iv) PTIO.
# [4] = tested on: β-lactamase (penicillinase, Sigma Aldrich); test: Amperometric nitric oxide release on exposure to penicillinase; type: biochemical; settings: non-NO-releasing cephalosporin alone, in the presence or absence of penicillinase
# Description: Arrows indicate addition of the following to a reaction vial containing 10 mL Tris buffer at pH 7.0: (a) 10 μL of 100 mM cephalosporin-3′-diazeniumdiolate, (b) 10 μl 1 U/μl penicillinase, (c) 20 μl 1 U/μl penicillinase, (d) 80 μL of 10 mM free radical scavenger PTIO.
# Amperometric characterization of nitric oxide release from Compound 15. (a) Nitric oxide release in the presence of penicillinase at varying pH. Arrows indicate addition of the following to a reaction vial containing 10 mL Tris buffer at pH 9.0 (thick line), 7.0 (dashed line) or 5.0 (dotted line): (i) 10 μL of 150 mM Compound 15, (ii) 5 μL of 0.1 U/μL penicillinase, (iii) 10 μL of 0.1 U/μL penicillinase, (iv) 80 μL of 10 mM free radical scavenger PTIO. (b) Nitric oxide release in the presence of β-lactamase-expressing P. aeruginosa (thick line) or non-β-lactamase-expressing E. coli (dotted line) cell extracts. Arrows indicate addition of the following to a reaction vial containing 10 mL Tris buffer at pH 7.0: (i) 10 μL of 150 mM Compound 15, (ii) 100 μL cell extract, (iii) 200 μL cell extract, (iv) PTIO. […] The data is representative of at least three independent experiments. […]
# [5] = tested on: P. aeruginosa NSGFP reporter strain (nirS-GFP); type: cell-based; settings: control treatments alone
# Description: To study nitric oxide release in intact cells of P. aeruginosa, the P. aeruginosa NSGFP reporter strain was used (Barraud et al., 2009). This strain harbours a gene reporter construct that expresses green fluorescent protein (GFP) when the nitric oxide-inducible nirS gene is expressed. P. aeruginosa NSGFP cells were grown with or without ampicillin at subinhibitory concentration (50 μg/ml) to induce β-lactamase activity.
# [6] = tested on: P. aeruginosa PAO1 wild type biofilms; test: Biofilm dispersal assay, 24-well batch culture, PAO1; type: cell-based; settings: 10 min exposure, alone
# Description: P. aeruginosa PAO1 wild type ATCC and MA67 strains, P. aeruginosa FRD1, a mucoid, cystic fibrosis (CF) isolate (Oilman and Chakrabarty, 1981), and the clinical strain P. aeruginosa 18A, which was isolated from CF sputum samples of chronically infected individual in Tasmania (Kirov et al, 2007) were used for biofilm dispersal assays. Biofilms were grown in M9 minimal medium (containing 48 mM Na2HPO4, 22 mM KH2PO4, 9 mM NaCl, 19 mM NH4Cl, pH 7.2, 2 mM MgSO4, 20 mM glucose, and 100 μM CaCl2) in 24-well plates batch cultures at 37° C. with shaking at 200 rpm. After 6 h incubation for PAO1 wild-type biofilms or 24 h incubation for FRD1 and 18A biofilms, treatments were added to each well in less than 1 min per plate and the plates were incubated for a further 10 min at 37° C. with shaking at 200 rpm. Planktonic biomass was quantified by direct measurement of OD600 of the supernatant, and the remaining biofilm biomass was quantified by crystal violet staining (O'Toole and Kolter, 1998).
smiles,measurement,setting,value
CCN(CC)/[N+]([O-])=N/OCC1=C(C(=O)O)N2C(=O)C(NC(=O)Cc3ccccc3)C2SC1 (stereo not drawn) (as salt: potassium) [Compound 21],melting point,,35 to 37 °C
CCN(CC)/[N+]([O-])=N/OCC1=C(C(=O)O)N2C(=O)C(NC(=O)Cc3ccccc3)C2SC1 (stereo not drawn) [Compound 15],melting point,,84 to 86 °C
"CCN(CC)[N+]([O-])=N[O-].[Na+] [DEA, O^2-sodium 1-(N,N-diethylamino)diazen-1-ium-1,2-diolate]",MIC,[1],16 mM
NC[C@H]1O[C@H](O[C@H]2[C@H](O)[C@@H](O[C@H]3O[C@H](CO)[C@@H](O)[C@H](N)[C@H]3O)[C@H](N)C[C@@H]2N)[C@H](N)C[C@@H]1O [Tobramycin],Log Reduction in Biofilm cfu,[2]; Compound 21 0 μM (antibiotic alone),2.15 ± 0.16
same,Log Reduction in Biofilm cfu,[2]; with Compound 21 10 μM,3.92 ± 0.06
same,Log Reduction in Biofilm cfu,[2]; with Compound 21 100 μM,3.58 ± 0.15
CC1(C)S[C@@H]2[C@H](NC(=O)[C@H](N)c3ccccc3)C(=O)N2[C@H]1C(=O)O [ampicillin],induction of extracellular β-lactamase expression,[3],failure of ampicillin to induce expression
CC(=O)OCC1=C(C(=O)O)N2C(=O)[C@@H](NC(=O)Cc3cccs3)[C@H]2SC1 [cephalothin],nitric oxide release,[4],no release of nitric oxide was observed
same,nitric oxide release,[4]; listed as cefalotin,undetectable
same,GFP fluorescence,[5],no effect on GFP fluorescence
same,biofilm dispersal,[6],did not induce significant dispersal events
same,MIC,"[1]; Pseudomonas aeruginosa, PAO1, read-out: MIC",16 mM
